# Measured values as given in patent publication US20260183302A1, “PDK1 REGULATORY COMPOUND AND COMPOSITION CONTAINING THE SAME” (PROVIBIO CO., LTD., priority 2024, published 2026).
# Key:
# [1] = system: skin graft (BALB/c donor to C57BL/6 recipient); experiment: In vivo skin graft immune suppression model; design: species or system C57BL/6 mice; settings: 0.15 mg/kg twice daily
# Procedure: To evaluate the immune-suppressive effects of the compounds according to the present invention, a skin graft animal model was established, and the efficacy of the compounds was analyzed in the model.
# First, female BALB/c mice aged 7 weeks and weighing approximately 20 g were used as donor animals, and female C57BL/6 mice of the same age and weight were used as recipient animals. All experimental animals were supplied by HanabioTech Co., Ltd.
# Prior to the experiment, the animals were acclimatized in SPF-certified facilities for one week and then used in the experiment. The housing conditions were maintained at a temperature of 22±2° C., relative humidity of 55+10%, and a 12-hour light-dark cycle.
# To establish the skin graft model, a anesthetic solution consisting of ketamine, […], and PBS in a volume ratio of 1:1:3 was administered intraperitoneally to C57BL/6 mice to induce anesthesia.
# The hair on the dorsal side of the anesthetized mice was removed and disinfected, followed by excision of the full-thickness skin using an 8 mm punch. Subsequently, skin of the same size was harvested from donor mice (BALB/c) and transplanted. […]
# Subsequently, the proportions of CD3- and B220-positive cells were analyzed using a flow cytometer.
# MRL/lpr mice = experiment: Systemic lupus erythematosus animal model (MRL/lpr); format: in vivo, MRL/MpJ-Faslpr/J mice
# Source text: The MRL/MpJ-Faslpr/J (hereinafter referred to as “MRL/lpr”) used in this experiment is one of the representative animal models for systemic lupus erythematosus (SLE), known to produce various autoantibodies, including antinuclear antibodies, due to the lpr (lymphoproliferation) gene.
# In this invention, the period up to 9 weeks of age was considered the pre-disease stage, and the period after 23 weeks of age was considered the post-disease stage, and efficacy verification experiments using this model were conducted.
# Subsequently, female and male MRL/lpr mice were mated at a ratio of 2:1 in the same facility, and the female offspring were administered the compound GO15F of the present invention or vehicle at a dose of 30 mg/kg once daily via intraperitoneal injection or oral administration from the age of 10 weeks until 23 weeks of age.
# Urine samples were collected once a week from each individual and used for analytical experiments.
# At 23 weeks of age, necropsy was performed on each MRL/lpr mouse, and serum, kidneys, and spleens were isolated and used for analytical experiments. […]
# The concentration of anti-nuclear antibodies (Anti-dsDNA Ab) was measured using the ‘Mouse Anti-dsDNA IgG ELISA Kit (Alpha Diagnostic International, Cat. #5120)’ on serum isolated at the time of necropsy in the lupus animal model.
# Each mouse serum was diluted to a final concentration of 1/5000 with Working Sample Diluent (WSD) and Low NSB Sample Diluent (LNSD), followed by adding 100 μl of the diluted serum to wells coated with anti-dsDNA and incubating at room temperature for 60 minutes.
# The serum separated at the time of necropsy of the lupus animal model was analyzed using the ‘IgG (Total) Mouse Uncoated ELISA Kit (Invitrogen, Cat. #88-50400)’ to measure the concentration of total IgG.
# To investigate the effect of GO15F administration on changes in the ratio of immune cells in the spleen of a lupus animal model, the spleens of mice administered each compound were excised, cells were extracted, and the cells were suspended in MACS buffer (autoMACS Washing Solution, Miltenyi Biotec., Cat. #130-092-987).
# For flow cytometry analysis, FACS tubes (5 mL round tubes, Falcon, Cat. #352052) were used. To prevent non-specific binding of antibodies, 1 μg/mL of anti-mouse CD16/CD32 (In VivoPlus anti-mouse CD16/CD32, BioXCell, Cat. #BP0307) for 30 minutes to prevent non-specific binding of the antibody, then centrifuge at 1,500 rpm for 5 minutes and resuspend in 100 μL of MACS buffer.
# For B cells, each FACS tube was stained with 1 μg/mL of FITC-conjugated anti-B220 antibody (eBioscience™, Cat. #11-0452-81) at 4° C. for 30 minutes, then washed with 2 mL of MACS buffer.
# For T cells, each FACS tube was stained with 1 μg/mL PerCP-Cy5.5-conjugated anti-CD3 (Biolegend, Cat. #100218) at 4° C. for 30 minutes.
# For macrophages, each FACS tube was stained with 1 μg/mL of PE-conjugated anti-CD11b antibody (Biolegend, Cat. #101207) and PerCP-Cy5.5-conjugated anti-F4/80 (Biolegend, Cat. #123128) and incubated at 4° C. for 30 minutes. The tubes were then washed with 2 mL of MACS buffer. […]
# The synthesized cDNA from each mouse was quantified to a concentration of 50 ng using a micro-quantitative spectrophotometer, and qPCR was performed for the cytokines ‘IL-2, IL-6, IL-10, IL-17, TNF-α, IFN-γ’ using a SYBR green probe (CFX96, BIO-RAD).
# To investigate the effects of drug administration on renal tissue in MRL/lpr mice, the tissue was fixed in 10% neutral buffered formalin at room temperature, followed by stepwise ethanol penetration for dehydration. The tissue was then embedded in xylene and paraffin.
# The blocked tissues were sectioned into 4 μm thick slices using a microtome, followed by deparaffinization, hydration, and staining.
# Hematoxylin & Eosin staining, PAS staining, and Masson trichrome staining were performed for pathological evaluation of the tissues. […]
# [2] = serum at necropsy, ELISA, vs control group
Structure (SMILES),animals with graft pinkening and good blood flow ([1]; day 10 post-transplantation),animals with graft pinkening and good blood flow ([1]; day 15 post-transplantation),"protein concentration in urine (MRL/lpr mice; 30 mg/kg once daily, vs control group)","renal pathological tissue staining (glomeruli) (MRL/lpr mice; H&E, PAS, Masson trichrome)","immune cells in the spleen (B cells, T cells, macrophages) (MRL/lpr mice; flow cytometry (B220, CD3, CD11b/F4/80))","IgG deposition in kidney tissue (MRL/lpr mice; immunofluorescence staining, vs control group)",concentration of anti-dsDNA IgG in the blood (MRL/lpr mice; [2]),total IgG concentration in the blood (MRL/lpr mice; [2])
"Nc1ncccc1C(=O)NCCCCCCCCCCCCN1CCNCC1 [Compound 14, 2-Amino-N-(12-(piperazin-1-yl)dodecyl)nicotinamide]",three out of five,one out of five,–,–,–,–,–,–
"Nc1ncccc1C(=O)NCCCCCCCCCCCCF [Compound 57, 2-Amino-N-(12-fluoro-dodecyl)-nicotinamide]",–,–,significantly lower,glomerular capillary loops were well maintained,"reduced the increased B cells, T cells, and macrophages",significantly lower,significantly lower,significantly lower
